Data on 38 molecules can be found in US10100016B2, “Condensed ring derivative, and preparation method, intermediate, pharmaceutical composition and use thereof” (SHANGHAI YINGLI PHARMACEUTICAL CO., LTD., priority 2015, dated 2018).

Chain of hURAT1 (Q96S37 whole entry): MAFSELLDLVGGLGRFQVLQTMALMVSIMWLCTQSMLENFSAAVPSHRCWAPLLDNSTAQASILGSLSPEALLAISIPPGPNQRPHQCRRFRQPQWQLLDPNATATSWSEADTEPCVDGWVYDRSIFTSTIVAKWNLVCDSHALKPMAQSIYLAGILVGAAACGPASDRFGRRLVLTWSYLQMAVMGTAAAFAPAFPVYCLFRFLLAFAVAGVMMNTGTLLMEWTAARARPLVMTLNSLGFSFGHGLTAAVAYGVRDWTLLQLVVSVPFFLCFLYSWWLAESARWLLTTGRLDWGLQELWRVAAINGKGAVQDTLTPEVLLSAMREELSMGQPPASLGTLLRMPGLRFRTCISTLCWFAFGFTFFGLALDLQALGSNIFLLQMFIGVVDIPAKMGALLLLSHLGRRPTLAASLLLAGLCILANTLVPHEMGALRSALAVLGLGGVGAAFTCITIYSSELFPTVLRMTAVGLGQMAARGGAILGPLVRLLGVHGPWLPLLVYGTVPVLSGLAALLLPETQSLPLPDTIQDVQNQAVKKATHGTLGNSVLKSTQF

For this experiment, the target named is hURAT1 (Homo sapiens (Human), UniProt Q96S37). The experiment is described as follows: 14C-uric acid transport inhibition in transfected HEK293/hURAT1 cells. The settings on record: 14C-uric acid uptake, 10 mins incubation, read-out: IC50 value against hURAT1. The experiment is classed as cell-based. As for the experimental part:
Human embryonic kidney cells (HEK293) was incubated in DMEM tissue culture medium, at 37° C., under 5% CO2 and 95% air atmosphere. […] Transfected HEK293/hURAT1 cells were used to the test for ^14C-uric acid transport activity.
The uric acid [8-14C] […] The incubating solution was removed after 10 mins incubation, followed by adding 100 μL cold washing buffer, after washing with this buffer for 3 times, the buffer was completely removed from the well.
For `CC(C)(Sc1ccc2cncc(-c3ccc(C#N)c4ccc(F)cc34)c2c1)C(=O)O` [Compound 12, 2-{[4-(4-Cyano-7-fluoronaphthalen-1-yl)isoquinolin-6-yl]thio}-2-methyl propionic Acid], the IC50 came to 71 nM.
To `CC(C)(Sc1ccc2cncc(-c3ccc(C#N)cc3)c2c1)C(=O)O` [Compound 4] belongs 15 nM.
As for `Cc1nn(Cc2c(Cl)cccc2Cl)c2cc(SC(C)(C)C(=O)O)ccc12` [Compound 26, 2-({1-[(2,6-dichlorophenyl)methyl]-3-methyl-1H-indazol-6-yl}thio)-2-methyl propionic Acid], the IC50 was 119 nM.
`CC(C)(Cc1cc2c(Cc3c(Cl)cccc3Cl)cccc2s1)C(=O)O` [Compound 40, 3-{4-[(2,6-Dichlorophenyl)methyl]-1-benzothiophen-2-yl]-2,2-dimethyl propionic Acid]: the IC50 stood at 3470 nM.
The value for `CC(C)(Cc1ccc2cncc(-c3ccc(C#N)cc3)c2c1)C(=O)O` [Compound 51, 3-[4-(4-Cyanophenyl)isoquinolin-6-yl]-2,2-dimethyl propionic Acid] was 19 nM; that for `N#Cc1ccc(-c2cncc3cc(CC(=O)O)sc23)c2ccccc12` [Compound 31, 2-[7-(4-Cyanonaphthalen-1-yl)thieno[3,2-c]pyridin-2-yl]acetic Acid] was 3420 nM; that for `CC(CC(=O)O)c1cc2cncc(-c3ccc(C#N)c4ccccc34)c2s1` (racemic) [Compound 52, 3-[7-(4-Cyanonaphthalen-1-yl)thieno[3,2-c]pyridine-2-yl]-butyric Acid] was 37 nM.
Turning to `N#Cc1ccc(-c2cncc3ccc(CC(=O)O)cc23)c2ccccc12` [Compound 3, 2-[4-(4-Cyanonaphthalen-1-yl)isoquinolin-6-yl]acetic Acid], the IC50 was 327 nM.
For the molecule `CC(Cc1ccc2cncc(-c3ccc(C#N)c4ccccc34)c2c1)C(=O)O` (centres unmarked) [Compound 16, 3-[4-(4-Cyanonaphthalen-1-yl)isoquinolin-6-yl]-2-methyl propionic acid], the IC50 came to 15 nM.
As to `CC(C)(Cc1cc2cncc(-c3ccc(C#N)cc3)c2s1)C(=O)O` [Compound 33, 3-[7-(4-Cyanophenyl)thieno[3,2-c]pyridin-2-yl]-2,2-dimethylpropionic Acid], the IC50 is 42 nM.
For `Cc1nc(Cc2c(Cl)cccc2Cl)n2cc(CCC(=O)O)ccc12` [Compound 25, 3-{3-[(2,6-dichlorophenyl)methyl]-1-methylimidazole[1,5-a]pyridine-6-yl}propionic Acid], the IC50 was 289 nM.
Regarding `N#Cc1ccc(-c2cncc3ccc(CCC(=O)O)cc23)cc1` [Compound 2, 3-[4-(4-Cyanophenyl)isoquinolin-6-yl]propionic Acid], the IC50 amounted to 161 nM.
The value for `CC(C)(Cc1cc2cncc(-c3ccc(C#N)c4ccccc34)c2s1)C(=O)O` [Compound 34, 3-[7-(4-Cyanonaphthalen-1-yl)thieno[3,2-c]pyridin-2-yl]-2,2-dimethylpropionic Acid] was 139 nM.
The value for `CC(C)(Cc1cc2c(-c3ccc(C#N)c4ccccc34)cccc2s1)C(=O)O` [Compound 38, 3-[4-(4-Cyanonaphthalen-1-yl)-1-benzothiophen-2-yl]-2,2-dimethyl propionic Acid] was 209 nM; that for `CC(C)(Sc1ccc2cncc(-c3cccc4c(C#N)cccc34)c2c1)C(=O)O` [Compound 10, 2{[4-(5-Cyanonaphthalen-1-yl)isoquinolin-6-yl]thio}-2-methylpropionic Acid] was 19 nM; that for `N#Cc1ccc(-c2cncc3ccc(/C=C/C(=O)O)cc23)c2ccccc12` [Compound 14, (2E)-3-[4-(4-Cyanonaphthalen-1-yl)isoquinolin-6-yl]acrylic Acid] was 385 nM.
On to `CC(C)(Sc1ccncc1-c1ccc(C#N)c2ccccc12)C(=O)O` [Verinurad (RDEA3170), reference compound], for which the IC50 is 113 nM.
As for `CC(C)(Sc1ccc2cnnc(-c3ccc(C#N)c4ccccc34)c2c1)C(=O)O` [Compound 50, 2-{[4-(4-Cyanonaphthalen-1-yl)phthalazin-6-yl]thio}-2-methyl propionic Acid], the IC50 was determined as 971 nM.
To `CC(C)(Sc1ccc2cncc(-c3ccc(C#N)cc3Cl)c2c1)C(=O)O` [Compound 23, 2-{[4-(2-Chloro-4-cyanophenyl)isoquinolin-6-yl]thio}-2-methyl propionic Acid] belongs 18 nM; to `N#Cc1ccc(-c2cncc3ccc(SC4(C(=O)O)CCC4)cc23)c2ccccc12` [Compound 24, 1-{[4-(4-cyanonaphthalen-1-yl)isoquinolin-6-yl]thio}cyclobutane-1-carboxylic Acid], 18 nM; to `CC(C)(C(=O)O)c1ccc2cncc(-c3ccc(C#N)c4ccccc34)c2c1` [Compound 49, 2-[4-(4-Cyanonaphthalen-1-yl)isoquinolin-6-yl]-2-methyl propionic acid], 116 nM.
Take `CC(C)(Cc1ccc2cncc(-c3ccc(C#N)c4ccccc34)c2c1)C(=O)O` [Compound 17, 3-[4-(4-Cyanonaphthalen-1-yl)isoquinolin-6-yl]-2,2-dimethyl propionic Acid]: the IC50 stood at 12 nM.
To `N#Cc1ccc(-c2cncc3cc(CC(=O)O)sc23)cc1` [Compound 32, 2-[7-(4-Cyanophenyl)thieno[3,2-c]pyridin-2-yl]acetic Acid] belongs 5400 nM; to `CC(C)(Oc1ccc2cncc(-c3ccc(C#N)cc3)c2c1)C(=O)O` [Compound 6, 2{[4-(4-Cyanophenyl)isoquinolin-6-yl]oxy}-2-methylpropionic Acid], 214 nM; to `CC(CC(=O)O)c1ccc2cncc(-c3ccc(C#N)c4ccccc34)c2c1` (centres unmarked) [Compound 15, 3-[4-(4-Cyanonaphthalen-1-yl)isoquinolin-6-yl]butyric Acid], 24 nM.
The value for `CC(C)(Sc1ccc2cncc(-c3ccc(C#N)c4c3OCCO4)c2c1)C(=O)O` [Compound 11, 2-{[4-(8-Cyano-2,3-dihydro-1,4-benzodioxan-5-yl)isoquinolin-6-yl]thio}-2-methylpropionic Acid] was 62 nM.
The value for `CC(CC(=O)O)c1ccc2cncc(-c3ccc(C#N)cc3)c2c1` (centres unmarked) [Compound 13, 3-[4-(4-Cyanophenyl)isoquinolin-6-yl]butyric Acid] was 189 nM.
In the case of `CC(C)(Sc1ccc2cncc(-c3ccc(C#N)cc3F)c2c1)C(=O)O` [Compound 8, 2{[4-(4-Cyano-2-fluorophenyl)isoquinolin-6-yl]thio}-2-methylpropionic Acid], the IC50 worked out at 57 nM.
For `CC(O)(CC(=O)O)c1cc2c(-c3ccc(C#N)c4ccccc34)cncc2s1` (centres unmarked) [Compound 41, 3-[4-(4-Cyanonaphthalen-1-yl)thieno[2,3-c]pyridin-2-yl]-3-hydroxyl butyric Acid], the IC50 came out at 934 nM.
Consider `CC(CC(=O)O)c1cc2c(-c3ccc(C#N)c4ccccc34)cncc2s1` (racemic) [Compound 42, 3-[4-(4-Cyanonaphthalen-1-yl)thieno[2,3-c]pyridin-2-yl] butyric Acid], for which the IC50 came out at 24 nM.
On to `N#Cc1ccc(-c2cncc3cc(C(=O)O)sc23)c2ccccc12` [Compound 29, 7-(4-Cyanonaphthalen-1-yl)thieno[3,2-c]pyridin-2-formic Acid], for which the IC50 worked out at 2860 nM.
With `N#Cc1ccc(-c2cncc3ccc(C(=O)O)cc23)cc1` [Compound 1, 4-(4-cyanophenyl)isoquinoline-6-carboxylic Acid], the IC50 was 2530 nM.
The value for `CC(Sc1ccc2cncc(-c3ccc(C#N)c4ccccc34)c2c1)C(=O)O` (centres unmarked) [Compound 21, 2-{[4-(4-Cyanonaphthalen-1-yl)isoquinolin-6-yl]thio}propionic Acid] was 100 nM; that for `CC(C)(Sc1cc(F)c2cncc(-c3ccc(C#N)c4ccccc34)c2c1)C(=O)O` [Compound 9, 2{[4-(4-Cyanonaphthalen-1-yl)-8-fluoroisoquinolin-6-yl]thio}-2-methylpropionic Acid] was 127 nM; that for `CC(C)(Cc1cc2c(-c3ccc(C#N)c4ccccc34)cncc2s1)C(=O)O` [Compound 47, 3-[4-(4-Cyanonaphthalen-1-yl)thieno[2,3-c]pyridin-2-yl]-2,2-dimethyl propionic Acid] was 18 nM.
The value for `N#Cc1ccc(-c2cncc3cc(CCC(=O)O)sc23)c2ccccc12` [Compound 30, 3-[7-(4-Cyanonaphthalen-1-yl)thieno[3,2-c]pyridin-2-yl]propionic acid] was 87 nM; that for `CC(C)(Sc1ccc2cncc(-c3ccc(C#N)c(Cl)c3)c2c1)C(=O)O` [Compound 22, 2-{[4-(3-Chloro-4-cyanophenyl)isoquinolin-6-yl]thio}-2-methyl propionic Acid] was 55 nM; that for `CC(C)(Sc1ccc2nccn2c1-c1ccc(C#N)cc1)C(=O)O` [Compound 27, 2-{[5-(4-Cyanophenyl)imidazo[1,2-a]pyridin-6-yl]thio}-2-methyl propionic Acid] was 1730 nM.
